Measurements taken from patent publication US12391671B2, “Allosteric EGFR inhibitors and methods of use thereof” (Dana-Farber Cancer Institute, Inc., priority 2019, dated 2025).
Structures can show the parent of a compound that is named as a salt. Where two headings read alike, the source gives them in different places.

How the values were obtained:
[1] = target: EGFR L858R/T790M (Homo sapiens (Human), UniProt P00533, L858R/T790M); test: HTRF-based EGFR biochemical assay (L858R/T790M); settings: 100 μM ATP, enzyme 0.02 nM
Sequence of EGFR L858R/T790M (P00533 25-1210 T790M/L858R): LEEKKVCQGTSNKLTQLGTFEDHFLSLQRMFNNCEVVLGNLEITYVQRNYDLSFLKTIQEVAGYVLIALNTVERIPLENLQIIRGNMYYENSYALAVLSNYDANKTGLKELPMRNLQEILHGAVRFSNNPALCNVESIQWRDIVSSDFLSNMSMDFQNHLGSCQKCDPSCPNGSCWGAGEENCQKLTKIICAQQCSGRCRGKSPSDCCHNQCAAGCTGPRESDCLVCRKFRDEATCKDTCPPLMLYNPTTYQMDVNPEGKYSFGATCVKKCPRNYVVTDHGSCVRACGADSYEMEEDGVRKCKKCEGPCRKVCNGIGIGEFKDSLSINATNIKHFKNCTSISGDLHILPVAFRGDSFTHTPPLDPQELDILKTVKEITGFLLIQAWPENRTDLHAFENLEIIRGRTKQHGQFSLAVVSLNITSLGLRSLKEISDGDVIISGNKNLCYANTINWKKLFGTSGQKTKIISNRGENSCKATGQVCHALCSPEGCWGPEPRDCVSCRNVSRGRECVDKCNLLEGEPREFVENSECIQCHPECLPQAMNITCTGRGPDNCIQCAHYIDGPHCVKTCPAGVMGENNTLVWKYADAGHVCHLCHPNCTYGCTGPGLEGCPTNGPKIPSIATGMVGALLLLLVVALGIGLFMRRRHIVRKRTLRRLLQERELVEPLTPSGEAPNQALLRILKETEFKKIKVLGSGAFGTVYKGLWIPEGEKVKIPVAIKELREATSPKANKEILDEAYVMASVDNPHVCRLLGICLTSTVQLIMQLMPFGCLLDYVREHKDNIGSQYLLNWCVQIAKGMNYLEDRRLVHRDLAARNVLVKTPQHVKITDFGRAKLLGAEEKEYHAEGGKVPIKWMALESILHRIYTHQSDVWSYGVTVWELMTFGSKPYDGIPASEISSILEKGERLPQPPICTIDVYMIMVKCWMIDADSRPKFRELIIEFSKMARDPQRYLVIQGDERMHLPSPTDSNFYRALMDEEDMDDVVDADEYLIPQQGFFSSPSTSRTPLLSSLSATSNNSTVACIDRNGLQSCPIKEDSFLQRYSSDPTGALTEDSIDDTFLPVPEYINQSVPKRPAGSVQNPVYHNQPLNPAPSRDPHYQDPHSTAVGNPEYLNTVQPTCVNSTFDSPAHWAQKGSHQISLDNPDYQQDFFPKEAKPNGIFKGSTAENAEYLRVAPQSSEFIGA
Outline: (§1)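 Mutant EGFR (L858R 0.1 nM, L858R/T790M 0.02 nM) preincubated 30 min with compounds at room temperature in HEPES pH 7.0 buffer with Mg2+/Mn2+, then reacted 20 min with 1 μM biotinylated tyrosine kinase peptide and 100 μM ATP. Phosphorylation read by HTRF (Eu-cryptate anti-phosphotyrosine/streptavidin-XL665, 665/620 nm) after EDTA quench.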

[2] = test system: EGFR mutant L858R/T790M Ba/F3 cells; test: Ba/F3 cell proliferation model (Cell Titer Glo), EGFR L858R/T790M; format: cell-based, murine; settings: 72 hours
Outline: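 Retrovirally transduced Ba/F3 cells exposed 72 h to compound alone or with 1 μg/mL cetuximab, triplicate points, repeated at least three times. Viability by Cell Titer Glo luminescence (ATP); curves fitted by non-linear sigmoidal dose-response regression.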

[3] = target: EGFR L858R (Homo sapiens (Human), UniProt P00533, L858R); test: HTRF-based EGFR biochemical assay (L858R); settings: 100 μM ATP, enzyme 0.1 nM
Sequence of EGFR L858R (P00533 25-1210 L858R): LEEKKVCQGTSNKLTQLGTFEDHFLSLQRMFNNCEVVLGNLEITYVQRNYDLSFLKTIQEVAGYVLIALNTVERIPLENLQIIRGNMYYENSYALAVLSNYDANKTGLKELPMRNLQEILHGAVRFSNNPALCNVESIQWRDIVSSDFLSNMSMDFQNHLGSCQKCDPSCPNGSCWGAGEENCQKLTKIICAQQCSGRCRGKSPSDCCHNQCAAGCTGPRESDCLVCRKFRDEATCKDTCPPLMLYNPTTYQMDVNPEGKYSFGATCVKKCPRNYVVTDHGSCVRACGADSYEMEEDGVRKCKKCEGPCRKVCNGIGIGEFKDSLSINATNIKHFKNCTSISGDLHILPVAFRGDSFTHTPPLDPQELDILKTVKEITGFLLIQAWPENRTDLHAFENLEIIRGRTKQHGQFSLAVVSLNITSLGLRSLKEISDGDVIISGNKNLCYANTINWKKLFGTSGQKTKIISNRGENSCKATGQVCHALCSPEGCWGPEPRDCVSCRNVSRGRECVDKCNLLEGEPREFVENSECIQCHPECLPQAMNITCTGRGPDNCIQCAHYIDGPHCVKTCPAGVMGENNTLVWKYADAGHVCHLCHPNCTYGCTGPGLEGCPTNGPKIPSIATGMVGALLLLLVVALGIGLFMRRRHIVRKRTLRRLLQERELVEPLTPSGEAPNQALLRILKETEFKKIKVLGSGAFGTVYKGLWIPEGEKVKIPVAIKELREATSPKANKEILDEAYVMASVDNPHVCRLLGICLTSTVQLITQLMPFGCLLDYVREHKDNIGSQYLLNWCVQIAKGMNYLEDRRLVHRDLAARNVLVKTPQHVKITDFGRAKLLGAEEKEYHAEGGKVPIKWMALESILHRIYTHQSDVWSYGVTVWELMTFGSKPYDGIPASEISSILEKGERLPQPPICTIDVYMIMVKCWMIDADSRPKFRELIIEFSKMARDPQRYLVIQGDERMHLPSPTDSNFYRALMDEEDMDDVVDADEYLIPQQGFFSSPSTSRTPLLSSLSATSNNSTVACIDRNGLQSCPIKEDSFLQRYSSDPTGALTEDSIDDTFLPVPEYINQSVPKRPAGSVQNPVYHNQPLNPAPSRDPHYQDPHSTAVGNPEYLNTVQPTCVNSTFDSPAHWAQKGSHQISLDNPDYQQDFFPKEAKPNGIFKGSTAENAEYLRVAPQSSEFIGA
Outline: as §1

[4] = Mus musculus, BaF3, single agent, read-out: Cell IC50 BaF3 EGFR L858R/T790M
[5] = in combination with 1 μg/mL cetuximab, read-out: Cell IC50 BaF3 EGFR L858R/T790M (+cetux.)

Row | SMILES | IC50 [1] [µM] | IC50 [2, 4] [µM] | IC50 [2, 5] [µM] | IC50 [3] [µM]
1 | Cc1ccc2[nH]c(C(c3cc(F)ccc3O)N3Cc4ccc(-c5ccc(C6CCN(C)CC6)cc5)cc4C3=O)nc2c1 (stereo not drawn) [Compound 050, 2-[(5-fluoro-2-hydroxy-phenyl)-(5-methyl-1H-benzimidazol-2-yl)methyl]-6-[4-(1-methyl-4-piperidyl)phenyl]isoindolin-1-one; formic acid] | 0.002 | 3.85 | 0.85 | 0.021
2 | CN1CCC(c2ccc(-c3ccc4c(c3)C(=O)N(C(c3nc5c(Cl)cccc5[nH]3)c3cc(F)ccc3O)C4)cc2)CC1 (stereo not drawn) [Compound 047, 2-[(4-chloro-1H-benzimidazol-2-yl)-(5-fluoro-2-hydroxy-phenyl)-methyl]-6-[4-(1-methyl-4-piperidyl)phenyl]isoindolin-1-one; formic acid] | 0.002 | 1.84 | 0.08 | 0.014
3 | CN1CCC(c2ccc(-c3ccc4c(c3)C(=O)N(C(c3nc5nccnc5[nH]3)c3cc(F)ccc3O)C4)cc2)CC1 (stereo not drawn) [Compound 019, 2-[(5-Fluoro-2-hydroxy-phenyl)-(1H-imidazo[4,5-b]pyrazin-2-yl)methyl]-6-[4-(1-methyl-4-piperidyl)phenyl]isoindolin-1-one; hydrochloride] | 0.001 | 1.87 | 0.01 | 0.004
4 | CN1CCC(c2ccc(-c3ccc4c(c3)C(=O)N(C(c3cccc(F)c3)c3nc5ccccc5[nH]3)C4)cc2)CC1 (stereo not drawn) [Compound 026, 2-[1H-Benzimidazol-2-yl-(3-fluorophenyl)methyl]-6-[4-(1-methyl-4-piperidyl)phenyl]isoindolin-1-one] | 0.007 | 2.28 | 0.08 | 0.026
5 | CN1CCC(c2ccc(-c3ccc4c(c3)C(=O)N(C(c3nc5ccccc5[nH]3)c3cc(F)ccc3O)C4)c(F)c2)CC1 (stereo not drawn) [Compound 029, 2-[1H-benzimidazol-2-yl-(5-fluoro-2-hydroxy-phenyl)-methyl]-6-[2-fluoro-4-(1-methyl-4-piperidyl)phenyl]isoindolin-1-one; formic acid] | 0.0006 | 0.76 | 0.02 | 0.002
6 | CN1CCC(c2ccc(-c3ccc4c(c3)C(=O)N(C(c3ccn[nH]3)c3cc(F)ccc3O)C4)cc2)CC1 (stereo not drawn) [Compound 045, 2-[(5-fluoro-2-hydroxy-phenyl)-(1H-pyrazol-3-yl)methyl]-6-[4-(1-methyl-4-piperidyl)phenyl]-isoindolin-1-one] | 0.018 | 3.74 | 1.17 | 0.032
7 | CN1CC(Oc2ccc(-c3ccc4c(c3)C(=O)N(C(c3nc5ccccc5[nH]3)c3cc(F)ccc3O)C4)cc2)C1 (stereo not drawn) [Compound 056, 2-[1H-benzimidazol-2-yl-(5-fluoro-2-hydroxy-phenyl)methyl]-6-[4-(1-methylazetidin-3-yl)oxyphenyl]isoindolin-1-one;dihydrochloride] | 0.008 | 1.28 | 0.01 | 0.012
8 | Cc1cccc2[nH]c(C(c3cc(F)ccc3O)N3Cc4ccc(-c5ccc(C6CCN(C)CC6)cc5)cc4C3=O)nc12 (stereo not drawn) [Compound 052, 2-[(5-fluoro-2-hydroxy-phenyl)-(4-methyl-1H-benzimidazol-2-yl)methyl]-6-[4-(1-methyl-4-piperidyl)phenyl]isoindolin-1-one; formic acid] | 0.002 | 4.18 | 0.37 | 0.005
9 | CN1CCC(C#Cc2ccc3c(c2)C(=O)N(C(c2nc4ccccc4[nH]2)c2cc(F)ccc2O)C3)CC1 (stereo not drawn) [Compound 011, 2-[1H-benzimidazol-2-yl-(5-fluoro-2-hydroxy-phenyl)methyl]-6-[2-(1-methyl-4-piperidyl)-ethynyl]isoindolin-1-one; hydrochloride] | 0.01 | 1.92 | 0.01 | 0.015

Continued by falling IC50 [1], values first:

Row | IC50 [1] [µM] | IC50 [2, 4] [µM] | IC50 [2, 5] [µM] | IC50 [3] [µM] | SMILES
10 | 0.033 | > 10 | 0.26 | 0.022 | O=C1c2cc(C#CCN3CCS(=O)(=O)CC3)ccc2CN1C(c1nc2ccccc2[nH]1)c1cc(F)ccc1O (stereo not drawn) [Compound 013, 2-[1H-benzimidazol-2-yl-(5-fluoro-2-hydroxy-phenyl)methyl]-6-[3-(1,1-dioxo-1,4-thiazinan-4-yl)prop-1-ynyl]isoindolin-1-one; hydrochloride]
11 | 0.013 | 4 | 0.24 | 0.031 | CN1CCC(c2ccc(-c3ccc4c(c3)C(=O)N(C(c3nc5ccccc5[nH]3)c3cccc(F)c3O)C4)cc2)CC1 (stereo not drawn) [Compound 042, 2-[1H-benzimidazol-2-yl-(3-fluoro-2-hydroxy-phenyl)-methyl]-6-[4-(1-methyl-4-piperidyl)phenyl]isoindolin-1-one; dihydrochloride]
12 | 0.006 | 5.23 | 0.34 | 0.024 | CN1CCC(c2ccc(-c3ccc4c(c3)C(=O)N(C(c3nc5ccccc5[nH]3)c3n[nH]c5c3CCC5)C4)cc2)CC1 (stereo not drawn) [Compound 033, 2-[1H-Benzimidazol-2-yl(1,4,5,6-tetrahydrocyclopenta[c]pyrazol-3-yl)methyl]-6-[4-(1-methyl-4-piperidyl)phenyl]isoindolin-1-one]
13 | 0.004 | 1.93 | 0.02 | 0.012 | CN1CCC(c2ccc(-c3cnc4c(c3)C(=O)N(C(c3nc5ccccc5[nH]3)c3cc(F)ccc3O)C4)cc2)CC1 (stereo not drawn) [Compound 010, 6-[1H-Benzimidazol-2-yl-(5-fluoro-2-hydroxy-phenyl)methyl]-3-[4-(1-methyl-4-piperidyl)phenyl]-7H-pyrrolo[3,4-b]pyridin-5-one]
14 | 0.002 | 1.1 | 0.02 | 0.015 | CN1CCC(c2ccc(-c3ccc4c(c3)C(=O)N(C(c3nc5cnccc5[nH]3)c3cc(F)ccc3O)C4)cc2)CC1 (stereo not drawn) [Compound 015, 2-[(5-Fluoro-2-hydroxy-phenyl)-(1H-imidazo[4,5-c]pyridin-2-yl)methyl]-6-[4-(1-methyl-4-piperidyl)phenyl]isoindolin-1-one;hydrochloride]
15 | 0.002 | 1.4 | 0.05 | 0.009 | CN1CCC(c2ccc(-c3ccc4ncn(C(c5ccccc5)c5nc6ccccc6[nH]5)c(=O)c4c3F)cc2)CC1 (stereo not drawn) [Compound 003, 3-((1H-Benzo[d]imidazol-2-yl)(phenyl)methyl)-5-fluoro-6-(4-(1-methylpiperidin-4-yl)phenyl)quinazolin-4(3H)-one 2,2,2-trifluoroacetate]
16 | 0.001 | 0.95 | 0.02 | 0.006 | CN1CCC(c2ccc(-c3ccc4c(c3)C(=O)N([C@H](c3nc5ccccc5[nH]3)c3cc(F)ccc3O)C4)cc2)CC1 (single isomer, unassigned) [Compound 023]
17 | 0.001 | 0.56 | 0.005 | 0.006 | CN1CCC(c2ccc(-c3ccc4c(=O)n(C(c5nc6ccccc6[nH]5)c5cc(F)ccc5O)cc(F)c4c3)cc2)CC1 (stereo not drawn) [Compound 053, 2-[1H-benzimidazol-2-yl-(5-fluoro-2-hydroxy-phenyl)-methyl]-4-fluoro-6-[4-(1-methyl-4-piperidyl)phenyl]isoquinolin-1-one; hydrochloride]
18 | 0.001 | 3.92 | 1.05 | 0.01 | COc1cccc2[nH]c(C(c3cc(F)ccc3O)N3Cc4ccc(-c5ccc(C6CCN(C)CC6)cc5)cc4C3=O)nc12 (stereo not drawn) [Compound 051]
